Legend:
cool-season turfgrasses = test: Subsequent testing of spray applications on cool-season turfgrasses; type: in vivo; settings: most cool-season turfgrasses
Text: (§1) Accordingly new treatments using aminocyclopyrachlor and its derivatives are needed for successful selective weed control in turf comprising warm-season turfgrasses.

Bermudagrass = settings: postemergence spray application, 31 g ai/ha; cited from earlier work
[1] = tested on: Bermudagrass, Centipedegrass, St. Augustinegrass, Zoysiagrass; test: Subsequent testing of spray applications on warm-season turfgrasses; type: in vivo; settings: Zoysiagrass and mixtures
Text: as §1

weeds = settings: mesotrione applied in a granular composition; cited from earlier work
[2] = tested on: perennial ryegrass, fine fescue, Kentucky bluegrass, tall fescue, zoysiagrass, St. Augustinegrass, centipedegrass; settings: cited from earlier work

Compound | safety of spray applications to cool-season turfgrasses (cool-season turfgrasses) | injury to Bermudagrass (Bermudagrass) [%] | phytotoxicity of spray applications to warm-season turfgrasses [1] | weed control, granular composition (weeds) | damage/phytotoxicity to turfgrass varieties, formulations in spray form ([2]; mesotrione applied as a liquid in spray form) | phytotoxicity to turfgrasses, granular composition ([2]; mesotrione applied in a granular composition)
COC(=O)c1nc(C2CC2)nc(N)c1Cl [Compound 1, methyl 6-amino-5-chloro-2-cyclopropyl-4-pyrimidinecarboxylate] | sufficient safety | 60 | unacceptable phytotoxicity |  |  | 
CS(=O)(=O)c1ccc(C(=O)C2C(=O)CCCC2=O)c([N+](=O)[O-])c1 [mesotrione] |  |  |  | good weed control | unacceptable levels of damage/phytotoxicity | reduced to insignificant levels

Source: patent publication US20110059848A1, “GRANULAR TURF SAFE HERBICIDAL COMPOSITIONS” (E. I. DU PONT DE NEMOURS AND COMPANY, priority 2007, published 2011)
